Where two headings read alike, the source gives them in different places.
Experiments:
[1] = tested on: Primary CLL cells; test: AnnexinV/PI assay on primary CLL cells; assay type: cell-based, human; details: for EC50: Homo sapiens, CLL cell, read-out: AnnexinV/PI assay EC50 Primary CLL; for selectivity for CLL cells compared to PBMCs: FIG. 3, sensitivity of CLL cells vs PBMCs
Description: (§1) PBMCs or CLL cells (5*10^6 cells/ml) were incubated for 24 h with different compounds at concentrations from 0.01 to 100 μM. Cell survival was normalized to DMSO control [vehicle]. See Example 1.
(§2) Primary CLL or peripheral blood mononuclear cells of healthy donors (5*10^6/ml) were incubated for 24 h with different compounds according to the invention and NO-ASA as a control. The compounds were added in different concentrations, in particular in concentrations from 0.01-100 μM. Cell survival was assessed by AnnexinV/PI assay (Kit commercially available, e.g. by Biotium Inc, USA; or Phoenix Flow Systems, US), the results were normalized to DMSO control [vehicle] and dose response curves were calculated using a non-linear regression model.

[2] = tested on: peripheral blood mononuclear cells (PBMCs) of healthy donors; test: AnnexinV/PI assay on PBMCs of healthy donors; assay type: cell-based; details: Homo sapiens, PBMC
Description: as §1, §2

[3] = tested on: MEC-1; test: CellTiter-Glo ATP assay, MEC-1 cell line; assay type: cell-based; details: Homo sapiens, MEC1; 24 h, CellTiter-Glo
Description: (§3) Several cell lines (n=5) were treated with different concentrations of p-NO-ASA, B9, B12 and B13 ranging between 0.01 μM and 1000 μM for 24 hours followed by addition of luminogenic CellTiter-Glo®-reagent. […] For each cell line the order of used compound in the bar chart is from left to right as following: p-NO-ASA, B9, B12, B13.
(§4) Treatment success in CLL may depend on cytogenetic and molecular parameters as for instance del13q or TP53 gene disruption. Therefore, the NO-ASA derivatives were examined on (chronic) B cell lymphoma cell lines with different geno- and phenotypes (JVM3, EHEB, U2932, MEC-1, GRANTA-519). The cells were treated with concentrations between 0.01 and 1000 μM for 24 h followed by the addition of luminogenic CellTiter-Glo® reagent.

[4] = tested on: GRANTA-519; test: CellTiter-Glo ATP assay, GRANTA-519 cell line; assay type: cell-based; details: Homo sapiens, Granta-519; 24 h, CellTiter-Glo
Description: as §3, §4

[5] = tested on: JVM-3; test: CellTiter-Glo ATP assay, JVM-3 cell line; assay type: cell-based, human; details: 24 h, 0.01-1000 μM
Description: as §3, §4

[6] = tested on: U2932; test: CellTiter-Glo ATP assay, U2932 cell line; assay type: cell-based; details: 24 h, 0.01-1000 μM
Description: as §3, §4

[7] = tested on: EHEB; test: CellTiter-Glo ATP assay, EHEB cell line; assay type: cell-based; details: 24 h, 0.01-1000 μM
Description: as §3, §4

[8] = tested on: TP53-mutated CLL cells; test: FACS analysis of treated CLL cells with TP53 mutation; assay type: cell-based, human; details: 24 h, 0.01-100 μM, FIG. 6
Description: (§5) Isolated, primary CLL cells were treated for 24 h with the EC50 of the different compounds and the ATP-content was measured by flow cytometry. For each used compound the order of mean EC50 concentrations in the bar chart is from left to right as following: EC50 CLL cells TP53 unmut (unmutated=without mutation), EC50 CLL cells TP53 mut (mutated=with mutation).
(§6) Further, the derivatives B9, B12 and B13 were tested in comparison to para-NO-ASA on CLL cells which harbour a TP53 mutation. The patient subgroup with a TP53 disruption is characterized by a considerable dismal prognosis. CLL cells of patients with and without the TP53 mutation were treated with five different concentrations (0.01, 0.1, 1, 10, 100 μM) of para-NO-ASA, B9, B12 and B13 for 24 h.

[9] = tested on: colon carcinoma cell line SW480; test: cells; assay type: cell-based; details: Homo sapiens, SW480, 24 h, read-out: Viability assay EC50, SW480
Description: The cell lines (n=5) were treated with different concentrations of p-NO-ASA, B9, B12 and B13 ranging between 0.01 μM and 100 μM for 24 hours followed by addition of luminogenic CellTiter-Glo®-reagent (see Example 5).
(§7) In the following experiment the possible therapeutic window for NO-ASA derivatives was investigated. […] The melanoma cell line MelJuso, the colon carcinoma cell line SW480, the small cell lung cancer cell line HCC44, the ovarian adenocarcinoma cell line COLO704 and the acute myeloid leukemia cell line SH2 were treated with concentrations of p-NO-ASA and B9, B12 and B13 in a range between 0.01 μM and 100 μM for 24 h, followed by addition of luminogenic CellTiter-Glo® reagent.
(§8) Table accompanying Example 5. Overview of the EC50 values of cell survival analyzed by ATP content and Annexin V/PI assay. n.t.; not tested

[10] = tested on: acute myeloid leukemia cell line SH2; test: Viability assay (ATP content, CellTiter-Glo), SH2; assay type: cell-based; details: 24 h
Description: as §7, §8

[11] = tested on: melanoma cell line MelJuso; test: Viability assay (ATP content, CellTiter-Glo), MelJuso; assay type: cell-based; details: Homo sapiens, MEL-JUSO, 24 h
Description: as §7, §8

[12] = tested on: small cell lung cancer cell line HCC44; test: Viability assay (ATP content, CellTiter-Glo), HCC44; assay type: cell-based
Description: as §7, §8

[13] = tested on: ovarian adenocarcinoma cell line COLO704; test: Viability assay (ATP content, CellTiter-Glo), COLO704; assay type: cell-based; details: COLO 704, 24 h
Description: as §7, §8

[14] = tested on: acute myeloid leukemia cell line SH2; test: Annexin V/PI assay, SH2; assay type: cell-based; details: 24 h
[15] = tested on: melanoma cell line MelJuso; test: Annexin V/PI assay, MelJuso; assay type: cell-based; details: Homo sapiens, MEL-JUSO, 24 h
[16] = tested on: small cell lung cancer cell line HCC44; test: Annexin V/PI assay, HCC44; assay type: cell-based; details: Homo sapiens, HCC44, 24 h
[17] = tested on: ovarian adenocarcinoma cell line COLO704; test: Annexin V/PI assay, COLO704; assay type: cell-based; details: COLO 704, 24 h
[18] = tested on: SW480, MelJuso, HCC44, SH2 and COLO704 cell lines; assay type: cell-based; details: 24 h, 0.01-100 μM
Description: as §7

[19] = tested on: several cancer cell lines; test: Apoptosis (Annexin V/PI) assay, panel of cancer cell lines; assay type: cell-based; details: range over the cancer cell lines, 24 h; read-out: concentrations inducing apoptosis in different diseases (apoptosis array)
[20] = tested on: phosphorylated NFkappaBp65 protein; test: Western blot of NFkappaB phosphorylation status in CLL cells; assay type: cell-based, human; details: 3 h; for reduction of NFkappaB activity (phosphorylated NFkappaBp65): CLL cells, 0.1, 1, 10 μM; for concentration inducing the reduction of NFkappaB p65 protein: CLL cells
Description: CLL cells were treated with B1, B9, B12 and B13 (0.1 μM, 1 μM, 10 μM) for 3 h. Untreated and DMSO (1%) treated cells served as control. GAPDH=loading control.
The BCR signalling pathway plays an important pathogenic role in CLL and lymphomas leading often to a constitutive active NFkappaB (in this state NFkappaB is phosphorylated). Therefore the influence of the derivatives on the phosphorylation status of NFkappaB was analyzed by Western Blot. CLL cells were treated with 0.1 μM, 1 μM or 10 μM of each derivate, respectively, for 3 h. CLL cells were treated with B1, B9, B12 and B13 (0.1 μM, 1 μM, 10 μM) for 3 h. Untreated and DMSO (1%) treated cells served as control. GAPDH=loading control.

[21] = tested on: CLL cells without a TP53 mutation; test: FACS analysis of treated CLL cells without TP53 mutation; assay type: cell-based, human; details: 24 h, 0.01-100 μM, FIG. 6
Description: as §5, §6

[22] = 24 h incubation, 0.01-100 μM, 5*10^6 cells/ml, normalized to DMSO control
[23] = 24 h incubation, value extrapolated beyond tested 0.01-100 μM, read-out: AnnexinV/PI assay EC50 PBMCs (* = extrapolated)
[24] = 24 h incubation, 0.01-100 μM, 5*10^6 cells/ml, normalized to DMSO control, read-out: AnnexinV/PI assay EC50 PBMCs

Compound: O=C(Oc1ccc(CO)cc1)c1ccccc1 [B8, 4-(hydroxymethyl)phenyl benzoate]
- EC50 [1, 22]: 57.3 µM

Compound: COc1ccccc1C(=O)Oc1ccc(CO[N+](=O)[O-])cc1 [B18, 4-((nitrooxy)methyl)phenyl 2-methoxybenzoate]
- EC50 [1, 22]: 26 µM

Compound: Nc1cccc2c(S(=O)(=O)Oc3ccc(CO[N+](=O)[O-])cc3)cccc12 [B16, 4-((nitrooxy)methyl)phenyl 5-aminonaphthalene-1-sulfonate]
- EC50 [1, 22]: 82.4 µM
- EC50 [2, 23]: 370 µM

Compound: C#Cc1cc(CO[N+](=O)[O-])ccc1OC(=O)c1ccccc1 [B20, 2-ethynyl-4-((nitrooxy)methyl)phenyl benzoate]
- EC50 [1, 22]: 21.8 µM
- EC50 [2, 23]: 308 µM

Compound: O=COCc1ccc(OC(=O)c2ccccc2)cc1 [B10, 4-((formyloxy)methyl)phenyl benzoate]
- EC50 [1, 22]: 79.4 µM
- EC50 [2, 23]: 859 µM

Compound: CC(C)(C)[Si](C)(C)OCc1ccc(OC(=O)c2ccccc2)cc1 [B7, 4-(((tert-butyldimethylsilyl)oxy)methyl)phenyl benzoate]
- EC50 [1, 22]: 52.8 µM
- EC50 [2, 23]: 203 µM

Compound: O=C(Oc1ccc(CO[N+](=O)[O-])cc1)c1cccc2ccccc12 [B13, 4-((nitrooxy)methyl)phenyl 1-naphthoate]
- selectivity for CLL cells compared to PBMCs ([1]; 24 h): selective for CLL cells
- EC50 [1, 22]: 1.04 µM
- EC50 [2, 24]: 52.7 µM
- EC50 [3]: 24.1 µM
- EC50 [4]: 19.7 µM
- ATP content in JVM-3 [5]: reduced ATP content
- ATP content in U2932 [6]: reduced ATP content
- ATP content in EHEB [7]: reduced ATP content
- effect on TP53-mutated CLL cells in comparison to para-NO-ASA (B1) [8]: more effective
- EC50 [9]: 190 µM
- EC50 [10]: 0.64 µM
- EC50 [11]: 4.79 µM
- EC50 ([12]; Homo sapiens, HCC44, 24 h): 1.68 µM
- EC50 [13]: 7.86 µM
- EC50 [14]: 6.95 µM
- EC50 [15]: 57.5 µM
- EC50 [16]: 37.9 µM
- EC50 [17]: 53.7 µM
- ATP content in SW480, MelJuso, HCC44, SH2 and COLO704 cell lines [18]: reduced ATP content
- EC50 [19]: 7 to 57 µM
- reduction of NFkappaB activity (phosphorylated NFkappaBp65) [20]: concentration dependent reduction
- concentration inducing the reduction of NFkappaB p65 protein [20]: 10 µM

Compound: O=C(Oc1ccc(CO[N+](=O)[O-])cc1)c1cc(C(F)(F)F)ccc1Cl [B6, 4-((nitrooxy)methyl)phenyl 2-chloro-5-(trifluoromethyl)benzoate]
- EC50 [1, 22]: 4.42 µM
- EC50 [2, 24]: 73.9 µM

Compound: CC(=O)Oc1cc(C)ccc1C(=O)Oc1ccc(CO[N+](=O)[O-])cc1 [B3, 4-((nitrooxy)methyl)phenyl 2-actetoxy-4-methylbenzoate]
- EC50 [1, 22]: 4 µM
- EC50 [2, 24]: 55.1 µM

Compound: O=C(Oc1ccc(CO[N+](=O)[O-])cc1)C1CCCCC1 [B14, 4-((nitrooxy)methyl)phenyl cyclohexane carboxylate]
- EC50 [1, 22]: 3.31 µM
- EC50 [2, 24]: 20.2 µM

Compound: O=C(Oc1ccc(CCl)cc1)c1ccccc1 [B12, 4-(chloromethyl)phenyl benzoate]
- selectivity for CLL cells compared to PBMCs ([1]; 24 h): selective for CLL cells
- EC50 [1, 22]: 1.33 µM
- EC50 [2, 24]: 35 µM
- EC50 [3]: 3.24 µM
- EC50 [4]: 0.68 µM
- ATP content in JVM-3 [5]: reduced ATP content
- ATP content in U2932 [6]: reduced ATP content
- ATP content in EHEB [7]: reduced ATP content
- effect on CLL cells without a TP53 mutation [21]: great effect
- effect on TP53-mutated CLL cells in comparison to para-NO-ASA (B1) [8]: more effective
- EC50 [9]: 130 µM
- EC50 [10]: 0.01 µM
- EC50 [11]: 0.54 µM
- EC50 ([12]; 24 h): 1.03 µM
- EC50 ([12]; Homo sapiens, HCC44, 24 h): 1.05 µM
- EC50 [13]: 2.77 µM
- EC50 [14]: 1.68 µM
- EC50 [15]: 4.79 µM
- EC50 [16]: 7.35 µM
- EC50 [17]: 1.8 µM
- ATP content in SW480, MelJuso, HCC44, SH2 and COLO704 cell lines [18]: reduced ATP content
- EC50 [19]: 1 to 5 µM
- reduction of NFkappaB activity (phosphorylated NFkappaBp65) [20]: concentration dependent reduction
- concentration inducing the reduction of NFkappaB p65 protein [20]: 10 µM

Compound: O=C(Oc1ccc(CO)cc1)c1cc(C(F)(F)F)ccc1Cl [B5, 4-(hydroxymethyl)phenyl 2-chloro-5-(trifluoromethyl)benzoate]
- EC50 [1, 22]: 37.2 µM
- EC50 [2, 23]: 108 µM

Compound: CC(=O)Oc1ccc(C)cc1C(=O)Oc1ccc(CO[N+](=O)[O-])cc1 [B2, 4-((nitrooxy)methyl)phenyl 2-actetoxy-5-methylbenzoate]
- EC50 [1, 22]: 4.75 µM
- EC50 [2, 24]: 48.5 µM

Compound: COc1cc(CO[N+](=O)[O-])ccc1OC(=O)c1ccccc1 [B11, 2-methoxy-4-((nitrooxy)methyl)phenyl benzoate]
- EC50 ([1]; 24 h): 14.7 µM
- EC50 ([2]; 24 h, read-out: AnnexinV/PI assay EC50 PBMCs): 24.4 µM

Source: patent US10793509B2, “Compounds useful in the treatment of neoplastic diseases” (UNIVERSITÄT ZU KÖLN, priority 2013, dated 2020)
